Reference: patent US12564601B2, “Methods for treating hepatitis B infection” (priority 2017, dated 2026)
Like-named read-outs stand apart in the source and are kept apart here.

Assays:
HBV = assay: Entecavir combination study in HBV-expressing mouse (HDI model); type: in vivo, mice; settings: for circulating (plasma) HBsAg / hepatic viral RNAs (liver HBV mRNA and pgRNA): HDI model; for circulating (plasma) HBsAg: ELISA; for hepatic viral RNAs (liver HBV mRNA and pgRNA): qPCR
Description: The RNAi oligonucletoides targeting the S antigen impact both the viral polymerase and HBsAg protein. In this study, the combinational effects of HBV(s)-219P2 as a monotherapy and combinational treatment with entecavir was explored in an HBV-expressing mouse (HDI model) for antiviral activity.
Mice were administered daily oral dosing of 500 ng/kg Entecavir (ETV) for 14 days. A single subcutaneous administration of HBV(s)-219P2 took place. Circulating viral load (HBV DNA) was measured by qPCR (FIG. 15A), plasma HBsAg level was measured by ELISA (FIG. 15B), and liver HBV mRNA and pgRNA levels were measured by qPCR.

HBsAg mRNA = assay: Time course of HBsAg mRNA expression in HDI model of HBV; type: in vivo, mouse; settings: three once-weekly doses of 3 mg/kg
Description: The durational effects of the HBV(s)-219P1 oligonucleotide were examined in two different mouse models of HBV—an HDI model, which is cccDNA-dependent, and an AAV model, which is cccDNA independent. A time course (12 weeks) analysis of HBsAg mRNA expression was performed in the context of a treatment involving three once-weekly doses of 3 mg/kg with the HBV(s)-219P1 oligonucleotide targeting HBsAg mRNA compared with vehicle control and an RNAi oligonucleotide targeting HBxAg mRNA in the HDI model of HBV (FIG. 12A).

HBsAg = assay: Plasma HBsAg suppression, S- versus X-targeting oligonucleotides, HDI model; type: in vivo, mice; settings: single saturating 9 mg/kg SC dose, n=3
Description: In this study, HBV-expressing mice (HDI model) were administered HBV(s)-219P2, GalXC-HBVX (same sequence as the GalXC-HBVX used in FIGS. 12A and 12B), or a combination of the two RNAi oligonucleotides and plasma HBsAg level two weeks or nine weeks post dose were monitored.

[1] = tested on: HBV Genotype A S ORF reporter sequence; assay: psiCHECK2 dual-luciferase reporter mismatch assay in HeLa cells; type: cell-based
Text: A psiCHECK-2 dual-luciferase reporter system was utilized to evaluate the effects of a mismatch at a selected position in each of HBV-217, HBV-219, HBV-254, HBV-255, and HBV-258. The psiCHECK vector enables monitoring of changes in expression of a target gene fused to a reporter gene, where active RNAi degrades the fusion construct to produce a corresponding decrease in reporter signal. The diagram in FIG. 6 generically depicts the vector utilized in these assays. The parent partial reporter sequence contained 120 base-pair fragments from Genotype A (GenBank: AM282986.1) around target sites of interest in the S ORE. […]
The psiCHECK2 reporter assays with each oligonucleotide were conducted over a three-day period using a 6-point, 5-fold serial dilution starting at 1 nM transfected in HeLa cells. […] The cells were then incubated at 37° C. in a CO2 incubator until the cells were ready to harvest and assay for the target gene. On day 3, 100 μL of Dual-Glo Reagent was added to each well, mixed and incubated for 10 minutes before reading the luminescence. A further 100 μL of Dual-Glo Stop & Glo was added to each well, mixed and incubated for 10 minutes before reading the luminescence. […] The EC50s values determined for each oligonucleotide are shown in Table 3 with additional specifications.

HBsAg viral transcript = assay: HBsAg levels in HDI-mice after subcutaneous HBV-254; type: in vivo
Description: Preclinical potency was further evaluated in mice following a QW×3 dosing regimen in which HBV-254 was subcutaneously administered at 3 mg/kg (FIG. 3). The administration points are indicated by arrows in the figure. HBsAg levels were monitored in both oligonucleotide treated and untreated control mice for a period spanning 147 days.

C=C1[C@H](CO)[C@@H](O)C[C@@H]1n1cnc2c(=O)[nH]c(N)nc21 [entecavir, Entecavir]
mean decrease in HBV DNA in plasma relative to PBS (HBV; 500 ng/kg PO daily for 14 days, n=6): ~1.6 log
circulating (plasma) HBsAg (HBV): No significant decrease
circulating (plasma) HBsAg (HBV; listed as ETV): no efficacy
hepatic viral RNAs (liver HBV mRNA and pgRNA) (HBV): No significant decrease
hepatic viral RNAs (liver HBV mRNA and pgRNA) (HBV; listed as ETV): no efficacy

GalXC-HBVX: RNAi oligonucleotide targeting HBxAg mRNA, sense strand SEQ ID NO: 39, antisense strand SEQ ID NO: 40 (sense UGCACUUCGCGUCACCUCUAGCAGCCGAAAGGCUGC; antisense UAGAGGUGACGCGAAGUGCAGG; GalNAc conjugate (GalXC), modification pattern not given here)
duration of activity (HBsAg mRNA): shorter duration
reduction of HBsAg mRNA expression (HBsAg mRNA; 12-week time course): ~3.0 log
plasma HBsAg suppression 9 weeks post dose / duration (HBsAg): significant recovery of HBsAg

HBV-254: HBsAg-targeting duplex oligonucleotide, sense strand SEQ ID NO: 23, antisense strand SEQ ID NO: 24 (sense GUGGUGGACUUCUCUCAAUAGCAGCCGAAAGGCUGC; antisense UAUUGAGAGAAGUCCACCACGG; listed as RNA, chemistry not given here)
EC50 ([1]; mismatch duplex, single mismatch to reporter at stated guide position, read-out: MM EC50s): 0.096 nM
EC50 ([1]; parent duplex, 100% homology to reporter, read-out: Parent EC50s): 0.037 nM
HBsAg levels relative to control (HBsAg viral transcript; QW×3, 3 mg/kg subcutaneous, monitored 147 days (FIG. 3)): Diminished HBsAg levels persisted in treated mice throughout the entirety of the study
HBsAg levels (HBsAg viral transcript; single dose evaluation, subcutaneous, HDI-mice (FIG. 2)): systematically reduced HBsAg levels in mice with increasing dosage
